Here are results for 23 compounds from patent publication US20230357239A1, “PYRIDO[2,3-D]PYRIMIDIN-4-AMINES AS SOS1 INHIBITORS” (Bayer Aktiengesellschaft, priority 2020, published 2023).

The target in this assay is human SOS1 (SOS1) with human K-RasG12C (Homo sapiens (Human), UniProt Q07889). As to the kind of experiment: hK-RasG12C interaction assay with hSOS1 (HTRF). Format: binding. Particulars: GST-hK-RasG12C and His-hSOS1, 60 min incubation at 20° C, mean, read-out: K-RasG12C - SOS interaction assay IC50 - [mol/l] (mean). How it is done: Biochemical Assay: hK-RasG12C Interaction Assay with hSOS1
human SOS1 (SOS1) with human K-RasG12C, sequence (Q07889 564-1049): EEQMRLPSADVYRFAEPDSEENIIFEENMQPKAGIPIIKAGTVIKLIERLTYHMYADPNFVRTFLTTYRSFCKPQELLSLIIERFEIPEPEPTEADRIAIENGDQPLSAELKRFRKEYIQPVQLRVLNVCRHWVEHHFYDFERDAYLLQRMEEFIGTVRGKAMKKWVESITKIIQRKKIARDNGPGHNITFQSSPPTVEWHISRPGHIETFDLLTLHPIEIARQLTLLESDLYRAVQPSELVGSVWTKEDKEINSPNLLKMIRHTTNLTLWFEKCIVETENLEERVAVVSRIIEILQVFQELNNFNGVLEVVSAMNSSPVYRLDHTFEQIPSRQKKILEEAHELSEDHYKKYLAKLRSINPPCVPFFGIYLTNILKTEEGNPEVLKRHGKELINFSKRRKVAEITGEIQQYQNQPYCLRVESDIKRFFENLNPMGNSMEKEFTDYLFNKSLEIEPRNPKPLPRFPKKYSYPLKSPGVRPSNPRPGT
This assay quantifies the equilibrium interaction of human SOS1 (SOS1) with human K-Ras^G12C (K-RasG12C). Detection of the interaction is achieved by measuring homogenous time-resolved fluorescence resonance energy transfer (HTRF) from antiGST-Europium (FRET donor) bound to GST-K-RasG12C to anti-6His-XL665 bound to His-tagged hSOS1 (FRET-acceptor).
The assay buffer containes 5 mM HEPES pH 7.4 (Applichem), 150 mM NaCl (Sigma), 10 mM EDTA (Promega), 1 mM DTT (Thermofisher), 0.05% BSA Fraction V, pH 7.0, (ICN Biomedicals), 0.0025% (v/v) Igepal (Sigma) and 100 mM KF (FLUKA).
Concentrations of protein batches used are optimized to be within the linear range of the HTRF signal. A Ras working solution is prepared in assay buffer containing typically 10 nM GST-hK-RasG12C and 2 nM antiGST-Eu(K) (Cisbio, France). A SOS1 working solution is prepared in assay buffer containing typically 20 nM His-hSOS1 and 10 nM anti-6His-XL665 (Cisbio, France). An inhibitor control solution is prepared in assay buffer containing 10 nM anti-6His-XL665 without SOS1.
Fifty nl of a 100-fold concentrated solution of the test compound in DMSO are transferred into a black microtiter test plate (384 or 1536, Greiner Bio-One, Germany).
For this, either a Hummingbird liquid handler (Digilab, MA, USA) or an Echo acoustic system (Labcyte, CA, USA) is used.
All steps of the assay are performed at 20° C. A volume of 2.5 μl of the Ras working solution is added to all wells of the test plate using a Multidrop dispenser (Thermo Labsystems). After 2 min preincubation, 2.5 μl of the SOS1 working solution are added to all wells except for those wells at the side of the test plate that are subsequently filled with 2.5 μl of the inhibitor control solution. After 60 min incubation the fluorescence is measured with a Pherastar (BMG, Germany) using the HTRF module (excitation 337 nm, emission 1: 620 nm, emission 2: 665 nm).
The ratiometric data (emission 2 divided by emission 1) are normalized using the controls (DMSO=0% inhibition, inhibition control wells with inhibitor control solution=100% inhibition). […] IC50 values are calculated by 4-Parameter fitting using a commercial software package (Genedata Screener, Switzerland).
A general note: TR-FRET usually uses a lanthanide donor and a delayed reading to cut background.
As for `CC(=O)N1CCC(c2cnc3nc(C)nc(N[C@H](C)c4cccc(C(F)(F)F)c4C)c3c2)C1` (mixture of isomers) [Example 31, 1-{(3RS)-3-[2-methyl-4-({(1R)-1-[2-methyl-3-(trifluoromethyl)phenyl]ethyl}amino)pyrido[2,3-d]pyrimidin-6-yl]pyrrolidin-1-yl}ethan-1-one], the IC50 is 11.9 nM.
With `C[C@@H](Nc1ncnc2ncc(Br)cc12)c1cccc(C(F)(F)F)c1` [Example 1, 6-bromo-N-{(1R)-1-[3-(trifluoromethyl)phenyl]ethyl}pyrido[2,3-d]pyrimidin-4-amine] the figure was 409 nM; with `CC(=O)N[C@@H]1CCN(c2cnc3ncnc(N[C@H](C)c4cccc(C(F)(F)F)c4)c3c2)C1` [Example 2, N-{(3R)-1-[4-({(1R)-1-[3-(trifluoromethyl)phenyl]ethyl}amino)pyrido[2,3-d]pyrimidin-6-yl]pyrrolidin-3-yl}acetamide], 34 nM; with `C[C@@H](Nc1ncnc2ncc(N3CCN(C)CC3)cc12)c1cccc(C(F)(F)F)c1` [Example 3, 6-(4-methylpiperazin-1-yl)—N-{(1R)-1-[3-(trifluoromethyl)phenyl]ethyl}pyrido[2,3-d]pyrimidin-4-amine], 13.9 nM.
With `CC(=O)N1CCN(c2cnc3ncnc(N[C@H](C)c4cccc(C(F)(F)F)c4)c3c2)CC1` [Example 4, 1-{4-[4-({(1R)-1-[3-(trifluoromethyl)phenyl]ethyl}amino)pyrido[2,3-d]pyrimidin-6-yl]piperazin-1-yl}ethan-1-one] the figure was 16.3 nM.
In the case of `CC(=O)N1CC=C(c2cnc3ncnc(N[C@H](C)c4cccc(C(F)(F)F)c4)c3c2)CC1` [Example 5, 1-{4-[4-({(1R)-1-[3-(trifluoromethyl)phenyl]ethyl}amino)pyrido[2,3-d]pyrimidin-6-yl]-3,6-dihydropyridin-1(2H)-yl}ethan-1-one], the IC50 stood at 4.24 nM.
Under `Cc1nc(N[C@H](C)c2cccc(C(F)(F)F)c2C)c2cc(Br)cnc2n1` [Example 6, 6-bromo-2-methyl-N-{(1R)-1-[2-methyl-3-(trifluoromethyl)phenyl]ethyl}pyrido[2,3-d]pyrimidin-4-amine] stands 251 nM; under `Cc1nc(N[C@H](C)c2cccc(C(F)(F)F)c2C)c2cc(N3CC4(CN(C(=O)OC(C)(C)C)C4)C3)cnc2n1` [Example 7, tert-butyl 6-[2-methyl-4-({(1R)-1-[2-methyl-3-(trifluoromethyl)phenyl]ethyl}amino)pyrido[2,3-d]pyrimidin-6-yl]-2,6-diazaspiro[3.3]heptane-2-carboxylate], 180 nM; under `CC(=O)N1CC2(C1)CN(c1cnc3nc(C)nc(N[C@H](C)c4cccc(C(F)(F)F)c4C)c3c1)C2` [Example 8, 1-{6-[2-methyl-4-({(1R)-1-[2-methyl-3-(trifluoromethyl)phenyl]ethyl}amino)pyrido[2,3-d]pyrimidin-6-yl]-2,6-diazaspiro[3.3]heptan-2-yl}ethan-1-one], 15.7 nM.
Under `CC(=O)N1CCC(c2cnc3ncnc(N[C@H](C)c4cccc(C(F)(F)F)c4)c3c2)CC1` [Example 9, 1-{4-[4-({(1R)-1-[3-(trifluoromethyl)phenyl]ethyl}amino)pyrido[2,3-d]pyrimidin-6-yl]piperidin-1-yl}ethan-1-one] stands 64.3 nM.
Under `CC(=O)N1CCN(c2cnc3ncnc(N[C@H](C)c4cccc(C(F)(F)F)c4C)c3c2)CC1` [Example 10, 1-{4-[4-({(1R)-1-[2-methyl-3-(trifluoromethyl)phenyl]ethyl}amino)pyrido[2,3-d]pyrimidin-6-yl]piperazin-1-yl}ethan-1-one] stands 3.55 nM; under `CC(=O)N[C@@H]1CCN(c2cnc3ncnc(N[C@H](C)c4cccc(C(F)(F)F)c4C)c3c2)C1` [Example 11, N-{(3R)-1-[4-({(1R)-1-[2-methyl-3-(trifluoromethyl)phenyl]ethyl}amino)pyrido[2,3-d]pyrimidin-6-yl]pyrrolidin-3-yl}acetamide], 17.6 nM; under `CC(=O)N1CC=C(c2cnc3ncnc(N[C@H](C)c4cccc(C(F)(F)F)c4C)c3c2)CC1` [Example 12, 1-{4-[4-({(1R)-1-[2-methyl-3-(trifluoromethyl)phenyl]ethyl}amino)pyrido[2,3-d]pyrimidin-6-yl]-3,6-dihydropyridin-1(2H)-yl}ethan-1-one], 4.06 nM.
In the case of `CC(=O)N1CC2(C1)CN(c1cnc3nc(C)nc(N[C@H](C)c4cccc(C(F)(F)F)c4C)c3c1)C2` [Example 13, 1-{6-[2-methyl-4-({(1R)-1-[2-methyl-3-(trifluoromethyl)phenyl]ethyl}amino)pyrido[2,3-d]pyrimidin-6-yl]-2,6-diazaspiro[3.3]heptan-2-yl}ethan-1-one-hydrogen chloride (1/1)], the IC50 came out at 6.35 nM.
With `CC(=O)N1C[C@@H]2C[C@H]1CN2c1cnc2nc(C)nc(N[C@H](C)c3cccc(C(F)(F)F)c3C)c2c1` [Example 14, 1-{(1S,4S)-5-[2-methyl-4-({(1R)-1-[2-methyl-3-(trifluoromethyl)phenyl]ethyl}amino)pyrido[2,3-d]pyrimidin-6-yl]-2,5-diazabicyclo[2.2.1]heptan-2-yl}ethan-1-one], the IC50 stood at 5.15 nM.
Under `Cc1nc(N[C@H](C)c2cccc(C(F)(F)F)c2C)c2cc(N3CCN(C)CC3)cnc2n1` [Example 15, 2-methyl-6-(4-methylpiperazin-1-yl)—N-{(1R)-1-[2-methyl-3-(trifluoromethyl)phenyl]ethyl}pyrido[2,3-d]pyrimidin-4-amine] stands 10.6 nM; under `CC(=O)N[C@@H]1CCN(c2cnc3nc(C)nc(N[C@H](C)c4cccc(C(F)(F)F)c4C)c3c2)C1` [Example 16, N-{(3R)-1-[2-methyl-4-({(1R)-1-[2-methyl-3-(trifluoromethyl)phenyl]ethyl}amino)pyrido[2,3-d]pyrimidin-6-yl]pyrrolidin-3-yl}acetamide], 17.5 nM; under `CC(=O)N1CCN(S(=O)(=O)c2cnc3nc(C)nc(N[C@H](C)c4cccc(C(F)(F)F)c4C)c3c2)CC1` [Example 17, 1-{4-[2-methyl-4-({(1R)-1-[2-methyl-3-(trifluoromethyl)phenyl]ethyl}amino)pyrido[2,3-d]pyrimidine-6-sulfonyl]piperazin-1-yl}ethan-1-one], 3.56 nM.
With `CC(=O)N1CCN(c2cc3c(N[C@H](C)c4cccc(C(F)(F)F)c4C)nc(C)nc3nc2C)CC1` [Example 19, 1-{4-[2,7-dimethyl-4-({(1R)-1-[2-methyl-3-(trifluoromethyl)phenyl]ethyl}amino)pyrido[2,3-d]pyrimidin-6-yl]piperazin-1-yl}ethan-1-one] the figure was 8.25 nM; with `COc1nc2nc(C)nc(N[C@H](C)c3cccc(C(F)(F)F)c3C)c2cc1N1CC2(CN(C(C)=O)C2)C1` [Example 20, 1-{6-[7-methoxy-2-methyl-4-({(1R)-1-[2-methyl-3-(trifluoromethyl)phenyl]ethyl}amino)pyrido[2,3-d]pyrimidin-6-yl]-2,6-diazaspiro[3.3]heptan-2-yl}ethan-1-one], 348 nM.
Consider `COc1nc2nc(C)nc(N[C@H](C)c3cccc(C(F)(F)F)c3C)c2cc1C1=CCN(C(C)=O)CC1` [Example 21, 1-{4-[7-methoxy-2-methyl-4-({(1R)-1-[2-methyl-3-(trifluoromethyl)phenyl]ethyl}amino)pyrido[2,3-d]pyrimidin-6-yl]-3,6-dihydropyridin-1(2H)-yl}ethan-1-one], for which the IC50 amounted to 949 nM.
For the compound `COc1nc2nc(C)nc(N[C@H](C)c3cccc(C(F)(F)F)c3C)c2cc1C1CCN(C(C)=O)CC1` [Example 22, 1-{4-[7-methoxy-2-methyl-4-({(1R)-1-[2-methyl-3-(trifluoromethyl)phenyl]ethyl}amino)pyrido[2,3-d]pyrimidin-6-yl]piperidin-1-yl}ethan-1-one], the IC50 is 805 nM.
With `COc1nc2nc(C)nc(N[C@H](C)c3cccc(C(F)(F)F)c3C)c2cc1N1CCCS1(=O)=O` [Example 23, 2-[7-methoxy-2-methyl-4-({(1R)-1-[2-methyl-3-(trifluoromethyl)phenyl]ethyl}amino)pyrido[2,3-d]pyrimidin-6-yl]-1 lambda^6,2-thiazolidine-1,1-dione] the figure was 2640 nM.
